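Cultured in 96-well plates, cells were exposed to test compound for 48 hours across five concentrations. GI50: concentration for 50% inhibition of growth. At the TGI there is no net growth.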
Experiments:
Test in all cases: NCI anticancer screen, dose series, 48 h
[1] = test system: SNB-19 CNS
[2] = test system: HOP-62 NSCLC
[3] = test system: SW-620 colon
[4] = test system: NCI/ADR-RES ovarian
[5] = test system: OVCAR-4 ovarian
[6] = test system: IGROV1 ovarian
[7] = test system: DU-145 prostate
[8] = test system: UO-31 renal
[9] = test system: NCI-H23 lung
[10] = test system: HL-60(TB) leukemia
[11] = test system: M14 melanoma
[12] = test system: 786-0 renal
[13] = test system: ACHN renal
[14] = test system: HT29 colon
[15] = test system: HS 578T breast
[16] = test system: EKVX NSCLC
[17] = test system: U251 CNS
[18] = test system: NCI-H226 lung
[19] = test system: MDA-MB-468 breast
[20] = test system: MDA-MB-435
[21] = test system: HOP-92 NSCLC
[22] = test system: NCI-H522 lung
[23] = test system: HCC-2998 colon
[24] = test system: MALME-3M melanoma
[25] = test system: PC-3 prostate
[26] = test system: OVCAR-3 ovarian
[27] = test system: SK-MEL-2 melanoma
[28] = test system: MOLT-4 leukemia
[29] = test system: SN12C renal
[30] = test system: SK-MEL-5 melanoma

Question: Which results are given for `Cc1ccc(-c2cc(C(=O)N=Nc3c(O)[nH]c4ccc(F)cc34)c3ccccc3n2)cc1`?
Answer: TGI [1]: 42.3 µM; GI50 [2]: 4.48 µM; TGI [2]: 18.6 µM; GI50 [3]: 5.53 µM; TGI [3]: 26 µM; GI50 [4]: 3.53 µM; TGI [4]: 27.5 µM; GI50 [5]: 5.68 µM; TGI [5]: 26.6 µM; GI50 [6]: 12.5 µM; TGI [6]: 28.5 µM; GI50 [7]: 15.6 µM; TGI [7]: 52.1 µM; GI50 [8]: 12.3 µM; TGI [8]: 24.8 µM; GI50 [9]: 4.2 µM; TGI [9]: 18.4 µM; GI50 [10]: 15.4 µM; TGI [10]: 54 µM; GI50 [11]: 11.6 µM; TGI [11]: 28 µM; GI50 [12]: 16.6 µM; TGI [12]: 39.1 µM; GI50 [13]: 12.7 µM; TGI [13]: 26 µM; GI50 [14]: 5.23 µM; TGI [14]: 19.2 µM; GI50 [15]: 7.2 µM; TGI [15]: 66.3 µM; GI50 [16]: 10.8 µM; TGI [16]: 27.4 µM; GI50 [17]: 4.09 µM; TGI [17]: 18.2 µM; GI50 [18]: 17.4 µM; TGI [18]: 37.2 µM; GI50 [19]: 9.09 µM; TGI [19]: 23.6 µM; GI50 [20]: 11.1 µM; TGI [20]: 27.8 µM; GI50 [21]: 11.5 µM; TGI [21]: 30.8 µM; GI50 [22]: 11.8 µM; TGI [22]: 27.5 µM; GI50 [23]: 15.1 µM; TGI [23]: 32.7 µM; GI50 [24]: 8.77 µM; TGI [24]: 21.6 µM; GI50 [25]: 9.49 µM; TGI [25]: 91 µM; GI50 [26]: 8.75 µM; TGI [26]: 30.4 µM; GI50 [27]: 17 µM; TGI [27]: 35 µM; GI50 [28]: 4.29 µM; TGI [28]: > 100 µM; GI50 [29]: 3.73 µM; TGI [29]: 16.5 µM; GI50 [30]: 15.2 µM; TGI [30]: 30.1 µM

Source: PubChem BioAssay (NCI)
